In brackets after ≈: the same amount, converted by molar mass.
Tests used:
[1] = test system: Mycobacterium tuberculosis; experiment: Antimycobacterial activity against Mycobacterium tuberculosis H37Rv assessed as inhibition of bacterial growth at 100 ug/ml measured after 9 days relative to control; assay type: functional; conditions: 216 h, time 9 day
[2] = test system: Mycobacterium tuberculosis; experiment: Antimycobacterial activity against Mycobacterium tuberculosis H37Rv assessed as inhibition of bacterial growth at 100 ug/ml measured after 24 hrs relative to control; assay type: functional
Vero = experiment: Cytotoxicity against African green monkey Vero cells assessed as cell viability measured after 24 hrs; assay type: cell-based; conditions: Chlorocebus sabaeus
[3] = test system: Mycobacterium tuberculosis; experiment: Antimycobacterial activity against Mycobacterium tuberculosis H37Rv under starvation condition assessed as inhibition of bacterial growth at 25 ug/ml measured after 1 day relative to control; assay type: functional; conditions: 24 h
[4] = test system: Mycobacterium tuberculosis; experiment: Antimycobacterial activity against Mycobacterium tuberculosis H37Rv assessed as inhibition of bacterial growth measured by Resazurin microtitre assay; assay type: functional
[5] = test system: Mycobacterium tuberculosis; experiment: Antimycobacterial activity against Mycobacterium tuberculosis H37Rv under starvation condition assessed as inhibition of bacterial growth at 25 ug/ml measured after 3 days relative to control; assay type: functional; conditions: 72 h, time 3 day
[6] = test system: Mycobacterium tuberculosis; experiment: Antimycobacterial activity against Mycobacterium tuberculosis H37Rv under starvation condition assessed as inhibition of bacterial growth at 100 ug/ml measured after 9 days relative to control; assay type: functional; conditions: 216 h, time 9 day
[7] = test system: Mycobacterium tuberculosis; experiment: Antimycobacterial activity against Mycobacterium tuberculosis H37Rv assessed as inhibition of bacterial growth at 100 ug/ml measured after 3 days relative to control; assay type: functional; conditions: 72 h, time 3 day
[8] = test system: Mycobacterium tuberculosis; experiment: Antimycobacterial activity against Mycobacterium tuberculosis H37Rv under starvation condition assessed as inhibition of bacterial growth at 6.25 ug/ml measured after 9 days relative to control; assay type: functional; conditions: 216 h, time 9 day
[9] = Selectivity index, ratio of IC50 for African green monkey Vero cells to MIC for antimycobacterial activity against Mycobacterium tuberculosis FURG-2; assay type: toxicity; conditions: read-out: Selectivity Index
[10] = test system: Mycobacterium tuberculosis; experiment: Antimycobacterial activity against Mycobacterium tuberculosis H37Rv under starvation condition assessed as inhibition of bacterial growth at 100 ug/ml measured after 1 day relative to control; assay type: functional; conditions: 24 h
[11] = test system: Mycobacterium tuberculosis; experiment: Antimycobacterial activity against Mycobacterium tuberculosis H37Rv under starvation condition assessed as inhibition of bacterial growth at 25 ug/ml measured after 9 days relative to control; assay type: functional; conditions: 216 h, time 9 day
[12] = test system: Mycobacterium tuberculosis; experiment: Antimycobacterial activity against Mycobacterium tuberculosis H37Rv under starvation condition assessed as inhibition of bacterial growth at 6.25 ug/ml measured after 3 days relative to control; assay type: functional; conditions: 72 h, time 3 day
[13] = test system: Mycobacterium tuberculosis; experiment: Antimycobacterial activity against Mycobacterium tuberculosis H37Rv under starvation condition assessed as inhibition of bacterial growth at 100 ug/ml measured after 3 days relative to control; assay type: functional; conditions: 72 h, time 3 day
[14] = test system: Mycobacterium tuberculosis; experiment: Antimycobacterial activity against Mycobacterium tuberculosis H37Rv under starvation condition assessed as inhibition of bacterial growth at 6.25 ug/ml measured after 1 day relative to control; assay type: functional; conditions: 24 h
[15] = Cytotoxicity against African green monkey Vero cells assessed as cell viability at 100 ug/ml measured after 24 hrs relative to control; assay type: cell-based; conditions: chlorocebus sabaeus, at 100 µg/mL, read-out: Activity

Row | SMILES | inhibition at 100 µg/mL [1] | inhibition at 100 µg/mL [2] | IC50 (Vero) | inhibition at 25 µg/mL [3] | MIC [4] | inhibition at 25 µg/mL [5] | inhibition at 100 µg/mL [6] | inhibition at 100 µg/mL [7] | inhibition at 6.25 µg/mL [8] | selectivity ratio [9] | inhibition at 100 µg/mL [10] | inhibition at 25 µg/mL [11] | inhibition at 6.25 µg/mL [12] | inhibition at 100 µg/mL [13] | inhibition at 6.25 µg/mL [14] | viability at 24 h, 100 ug/ml [15]
1 | O=C(C1=CN(CCc2ccccc2)C(NCCc2ccccc2)CC1)C(F)(F)F (configuration not stated) | 100% | 89.5% | 140 µg/mL (≈ 347 µM) | 0% | 25 µg/mL (≈ 62.1 µM) | 99.5% | 100% | 99.9% | 100% | > 10 | 97.5% | 100% | 0% | 99.9% | 0% | 80%
2 | CO[C@H]1/C=C/O[C@@]2(C)Oc3c(C)c(O)c4c(O)c(c(/C=N/N5CCN(C)CC5)c(O)c4c3C2=O)NC(=O)/C(C)=C\C=C\[C@H](C)[C@H](O)[C@@H](C)[C@@H](O)[C@@H](C)[C@H](OC(C)=O)[C@@H]1C [RIFAMPIN] |  |  |  |  | 256 µg/mL (≈ 311 µM) |  |  |  |  |  |  |  |  |  |  | 
